Test results from US20100120798A1, “SUBSTITUTED PIPERIDINES CONTAINING A HETEROARYLAMIDE OR HETEROARYLPHENYL MOIETY” (ASTEX THERAPEUTICS LIMITED, priority 2006, published 2010).

Assay: In vitro MDA-MB-468 human breast adenocarcinoma GSK-3 phosphorylation assay
Type: cell-based
Settings: mean IC50, MDA-MB-468 cells, 2 hours with compound, phospho-GSK-3β
Description: This assay determines the ability of test compounds to inhibit phosphorylation of Serine-9 residue in Glycogen Synthase Kinase-3beta (GSK-3β) as a surrogate marker of cellular PKB (Akt) activity, as assessed using Acumen Explorer Fluorescent Plate-Reader technology. A MDA-MB-468 human breast adenocarcinoma cell line (LGC Promochem, Teddington, Middlesex, UK, Catalogue No. HTB-132) was routinely maintained in Dulbecco's modified Eagle's growth medium (DMEM; Invitrogen Limited, Paisley, UK Catalogue No. 11966-025) containing 10% heat-inactivated foetal calf serum (FCS; Sigma, Poole, Dorset, UK, Catalogue No. F0392) and 1% L-glutamine (Gibco, Catalogue No. 25030-024) at 37° C. with 5% CO2 up to a confluency of 70-90%.
For the phosphorylation assay, the cells were detached from the culture flask using Trypsin-EDTA (Invitrogen Limited, Catalogue No. 25300-062) and seeded into the wells of a black transparent-bottom Corning Costar Polystyrene 96 well plate (Fisher Scientific UK, Loughborough, Leicestershire, UK; Catalogue No. 3904 and DPS-130-020K) at a density of 5000 cells per well in 100 μl of complete growth media. The cells were incubated overnight at 37° C. with 5% CO2 to allow them to adhere.
On day 2, the cells were treated with test compounds and incubated for 2 hours at 37° C. with 5% CO2. Test compounds were prepared as 10 mM stock solutions in DMSO and dosed directly to required concentration into test wells using non-contact (acoustic dispensing of multiple 2.5 nl droplets directly into assay wells) ECHO dosing technology (Labcyte Inc. Sunnyvale, Calif., USA). Each plate contained control wells without test compound.
20 μl of fixing buffer (Phosphate Buffered Saline (PBS) containing 10% formaldehyde; Sigma; Catalogue No. F1635) was then added to each well to give a final well concentration 1.6%. Plates were then incubated for 30 minutes at room temperature prior to the fixative being removed. Each well was washed once with 250 μl of PBS and then 50 μl PBS added to each well. PBS was then aspirated and cells permeabilised and blocked by incubating each well with 50 μl of permeabilisation/blocking buffer (PBS containing 0.5% Tween 20 (Sigma; Catalogue No. P5927) and 5% Marvel Milk Powder (Andrews Pharmacy Ltd, Macclesfield, Cheshire, UK; Catalogue No. APC100199)) for 1 hour at room temperature prior to staining.
Following removal of Perm/Block buffer, 50 μl of primary anti-phospho-GSK-3β antibody (Cell Signalling Technology (New England Biolabs (Uk) Ltd.), Hitchin, Hertfordshire, UK; Catalogue No. 9336 diluted 1:400 in Blocking buffer (PBS containing 5% Marvel and 0.05% Tween/Polysorbate 20) was added to each well and incubated overnight at 4° C.
Each well was washed three times in 250 μl of wash buffer (PBS containing 0.05% polysorbate 20), and cells incubated for 1 hour at room temperature with 50 μl of secondary fluorescently-labelled anti-rabbit Alexa Fluor 488 antibody (Molecular Probes, Invitrogen Limited, Catalogue No. A11008) diluted 1:750 in blocking buffer. Plates were washed three times in 250 μl of wash buffer and stored containing 50 μl of PBS at 4° C. until required.
Plates were analysed using an Acumen Explorer Plate-reader to quantify level of fluorescent signal that represents quantity of phosphorylated-GSK-3β.
IC50 calculation—IC50 is the concentration of compound required to give 50% effect over the range of activity affected by the compound, between maximum (no compound) and minimum (excess level of compound) response control data. IC50 values were determined by fitting background corrected, dose response assay data to a 4 parameter logistic curve fit equation model with the minimum response set to zero. This was done using an in-house developed algorithm within the Origin graphing software package (OriginLab Corporation, Northampton, Mass., USA). […]

SMILES | IC50
NC1(C(=O)NCc2cc(-c3ccc(Cl)cc3)no2)CCN(c2ncnc3[nH]ccc23)CC1 [Example 44, 4-amino-N-[[3-(4-chlorophenyl)-1,2-oxazol-5-yl]methyl]-1-(7H-pyrrolo[2,3-d]pyrimidin-4-yl)piperidine-4-carboxamide] | 19000 nM
NC1(C(=O)NCc2cnc(-c3ccccc3)s2)CCN(c2ncnc3[nH]ccc23)CC1 [Example 46, 4-Amino-1-(7H-pyrrolo[2,3-d]pyrimidin-4-yl)-piperidine-4-carboxylic acid (2-phenyl-thiazol-5-ylmethyl)-amide] | 14000 nM
NC1(C(=O)NCc2cc3ccccc3[nH]2)CCN(c2ncnc3[nH]ccc23)CC1 [Example 50, 4-Amino-1-(7H-pyrrolo[2,3-d]pyrimidin-4-yl)-piperidine-4-carboxylic acid (1H-indol-2-ylmethyl)-amide] | 700 nM
NC1(C(=O)Nc2cccc(-c3nc4ccccc4o3)c2)CCN(c2ncnc3[nH]ccc23)CC1 [Example 52, 4-Amino-1-(7H-pyrrolo[2,3-d]pyrimidin-4-yl)-piperidine-4-carboxylic acid (3-benzooxazol-2-yl-phenyl)-amide] | 5100 nM
Cc1cnc(NC(=O)C2(CN)CCN(c3ncnc4[nH]ccc34)CC2)s1 [Example 59, 4-(aminomethyl)-N-(5-methylthiazol-2-yl)-1-(7H-pyrrolo[2,3-d]pyrimidin-4-yl)piperidine-4-carboxamide] | 200 nM
NCC1(C(=O)Nc2ccc(F)cn2)CCN(c2ncnc3[nH]ccc23)CC1 [Example 60, 4-(aminomethyl)-N-(5-fluoropyridin-2-yl)-1-(7H-pyrrolo[2,3-d]pyrimidin-4-yl)piperidine-4-carboxamide] | 330 nM
NCC1(C(=O)Nc2ccc(C(F)(F)F)cn2)CCN(c2ncnc3[nH]ccc23)CC1 [Example 61, 4-(Aminomethyl)-1-(7H-pyrrolo[2,3-d]pyrimidin-4-yl)-N-(5-(trifluoromethyl)pyridin-2-yl)piperidine-4-carboxamide] | 47 nM
NCC1(C(=O)Nc2nc3ccccc3s2)CCN(c2ncnc3[nH]ccc23)CC1 [Example 63, 4-(Aminomethyl)-N-(benzo[d]thiazol-2-yl)-1-(7H-pyrrolo[2,3-d]pyrimidin-4-yl)piperidine-4-carboxamide] | 170 nM
Cn1cc(-c2cc(F)cc(C3(CN)CCN(c4ncnc5[nH]ccc45)CC3)c2)cn1 [Example 70, (4-(3-fluoro-5-(1-methyl-1H-pyrazol-4-yl)phenyl)-1-(7H-pyrrolo[2,3-d]pyrimidin-4-yl)piperidin-4-yl)methanamine] | 59 nM
NCC1(c2cc(F)cc(-c3cncc(F)c3)c2)CCN(c2ncnc3[nH]ccc23)CC1 [Example 71, (4-(3-Fluoro-5-(5-fluoropyridin-3-yl)phenyl)-1-(7H-pyrrolo[2,3-d]pyrimidin-4-yl)piperidin-4-yl)methanamine] | 17 nM
Cc1cnc(NC(=O)C2(CN)CCN(c3ncnc4[nH]cnc34)CC2)s1 [Example 72, 4-(Aminomethyl)-N-(5-methylthiazol-2-yl)-1-(9H-purin-6-yl)piperidine-4-carboxamide] | 310 nM

Further lines, results first:

IC50 | SMILES
> 19000 nM | Cn1cc(CNC(=O)C2(N)CCN(c3ncnc4[nH]ccc34)CC2)cn1 [Example 45, 4-amino-N-[(1-methylpyrazol-4-yl)methyl]-1-(7H-pyrrolo[2,3-d]pyrimidin-4-yl)piperidine-4-carboxamide]
3900 nM | Cc1ccsc1CNC(=O)C1(N)CCN(c2ncnc3[nH]ccc23)CC1 [Example 47, 4-Amino-1-(7H-pyrrolo[2,3-d]pyrimidin-4-yl)-piperidine-4-carboxylic acid (3-methyl-thiophen-2-ylmethyl)-amide]
380 nM | NC1(C(=O)NCc2cc(Br)no2)CCN(c2ncnc3[nH]ccc23)CC1 [Example 48, 4-Amino-1-(7H-pyrrolo[2,3-d]pyrimidin-4-yl)-piperidine-4-carboxylic acid (3-bromo-isoxazol-5-ylmethyl)-amide]
4200 nM | Cc1cc(CNC(=O)C2(N)CCN(c3ncnc4[nH]ccc34)CC2)on1 [Example 49, 4-Amino-1-(7H-pyrrolo[2,3-d]pyrimidin-4-yl)-piperidine-4-carboxylic acid (3-methyl-isoxazol-5-ylmethyl)-amide]
< 17 nM | Cn1cc(-c2cccc(C3(CN)CCN(c4ncnc5[nH]ccc45)CC3)c2)cn1 [Example 51, (4-(3-(1-Methyl-1H-pyrazol-4-yl)phenyl)-1-(7H-pyrrolo[2,3-d]pyrimidin-4-yl)piperidin-4-yl)methanamine]
150 nM | NCC1(c2cccc(-c3cn[nH]c3)c2)CCN(c2ncnc3[nH]ccc23)CC1 [Example 73, [4-[3-(1H-Pyrazol-4-yl)phenyl]-1-(7H-pyrrolo[3,2-e]pyrimidin-4-yl)piperidin-4-yl]methanamine]
55 nM | Cc1ccncc1-c1cccc(C2(CN)CCN(c3ncnc4[nH]ccc34)CC2)c1 [Example 74, [4-[3-(4-methylpyridin-3-yl)phenyl]-1-(7H-pyrrolo[3,2-e]pyrimidin-4-yl)piperidin-4-yl]methanamine]
65 nM | NCC1(c2cccc(-c3ccncc3)c2)CCN(c2ncnc3[nH]ccc23)CC1 [Example 75, [4-(3-pyridin-4-ylphenyl)-1-(7H-pyrrolo[3,2-e]pyrimidin-4-yl)piperidin-4-yl]methanamine]
33 nM | NCC1(c2cccc(-c3cccnc3)c2)CCN(c2ncnc3[nH]ccc23)CC1 [Example 76, [4-(3-pyridin-3-ylphenyl)-1-(7H-pyrrolo[3,2-e]pyrimidin-4-yl)piperidin-4-yl]methanamine]
35 nM | NCC1(c2cccc(-c3cncnc3)c2)CCN(c2ncnc3[nH]ccc23)CC1 [Example 77, [4-(3-pyrimidin-5-ylphenyl)-1-(7H-pyrrolo[3,2-e]pyrimidin-4-yl)piperidin-4-yl]methanamine]
50 nM | NCC1(c2cccc(-c3ccco3)c2)CCN(c2ncnc3[nH]ccc23)CC1 [Example 78, [4-[3-(furan-2-yl)phenyl]-1-(7H-pyrrolo[3,2-e]pyrimindin-4-yl)piperidin-4-yl]methanamine]
48 nM | NCC1(c2cccc(-c3ccoc3)c2)CCN(c2ncnc3[nH]ccc23)CC1 [Example 79, [4-(3-furan-3-ylphenyl)-1-(7H-pyrrolo[3,2-e]pyrimidin-4-yl)piperidin-4-yl]methanamine]
100 nM | NCC1(c2cccc(-c3cnoc3)c2)CCN(c2ncnc3[nH]ccc23)CC1 [Example 80, [4-[3-(1,2-oxazol-4-yl)phenyl]-1-(7H-pyrrolo[3,2-e]pyrimidin-4-yl)piperidin-4-yl]methanamine]
73 nM | NCC1(C(=O)Nc2ccc(Cl)cn2)CCN(c2ncnc3[nH]ccc23)CC1 [Example 81, 4-(Aminomethyl)-N-(5-chloropyridin-2-yl)-1-(7H-pyrrolo[2,3-d]pyrimidin-4-yl)piperidine-4-carboxamide]
54 nM | NCC1(C(=O)Nc2ccc(C(F)(F)F)nc2)CCN(c2ncnc3[nH]ccc23)CC1 [Example 82, 4-(Aminomethyl)-1-(7H-pyrrolo[2,3-d]pyrimidin-4-yl)-N-(6-(trifluoromethyl)pyridin-3-yl)piperidine-4-carboxamide]
